Molecular target: T1, mTORC1 (mTOR kinase complex) (Homo sapiens, UniProt P42345)
T1 construct: mTORC1 complex immunoprecipitated from HEK293T cells expressing HA-tagged Raptor; with Raptor (HA-tagged; mTORC1 complex)
Assay: in vitro kinase assay, immunoprecipitated mTORC1, GST-4EBP1 substrate, […] EPA (single concentration)
Format: biochemical

SMILES: CC/C=C\C/C=C\C/C=C\C/C=C\C/C=C\CCCC(=O)O [EPA, eicosapentaenoic acid]
- in vitro kinase assay, immunoprecipitated mTORC1, GST-4EBP1 substrate, 100 μM EP: The addition of EPA, but not EPA-EE, caused significant inhibition of 4EBP1 phosphorylation by immunoprecipitated mTORC1

— article PMC11004178, “LDL receptor-related protein 5 selectively transports unesterified polyunsaturated fatty acids to intracellular compartments” (Nature Communications, 2024)
